Source: patent US20250282799A1, “SUBSTITUTED PYRIDO[4,3-d]PYRIMIDINES AS KRAS MODULATORS” (Alterome Therapeutics, Inc., priority 2023, published 2025)

The compounds below were run on KRAS G12V dependent lung adenocarcinoma cell line, NCI-H441 (assay: Cellular pERK (Thr202/Tyr204) FRET/HTRF assay). Conditions: Homo sapiens, NCI-H441, cellular pERK (Thr202/Tyr204) HTRF, NCI-H441 cells.
Format: cell-based
Summary of the method: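 Using a mix-and-read HTRF kit, phospho-ERK (Thr202/Tyr204) was detected in NCI-H441 lysates following 1 hr compound incubation at 37 °C, 5% CO2. Cells had been seeded overnight beforehand, and IC50 was derived by curve fitting.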

| SMILES | IC50 [µM] |
| --- | --- |
| [2H]C([2H])(Oc1nc(N2CCOC[C@H]3[C@H](F)[C@H]32)c2cnc(-c3cc(N)cc4ccc(F)c(C#C)c34)cc2n1)[C@@]12CCCN1C[C@H](F)C2 [Example 261, 5-ethynyl-6-fluoro-4-(4-((1S,7S,8S)-8-fluoro-5-oxa-2-azabicyclo[5.1.0]octan-2-yl)-2-(((2R,7aS)-2-fluorotetrahydro-1H-pyrrolizin-7a(5H)-yl)methoxy-d2)pyrido[4,3-d]pyrimidin-7-yl)naphthalen-2-amine] | < 0.05 |
| [2H]C([2H])(F)Oc1c(F)ccc2cc(N)cc(-c3ncc4c(N5CCOC[C@H]6[C@H](F)[C@H]65)nc(OC[C@]56CC(=C)CN5CCC65CC5)nc4c3F)c12 [Example 387, 6-fluoro-4-(8-fluoro-4-((1S,7S,8S)-8-fluoro-5-oxa-2-azabicyclo[5.1.0]octan-2-yl)-2-(((R)-6′-methylenetetrahydrospiro[cyclopropane-1,1′-pyrrolizin]-7a′(5′H)-yl)methoxy)pyrido[4,3-d]pyrimidin-7-yl)-5-(fluoromethoxy-d2)naphthalen-2-amine] | < 0.05 |
| [2H]C([2H])(Oc1nc(N2CCCC[C@H]3[C@H](F)[C@H]32)c2cnc(-c3cc(N)cc4ccc(C)c(C#C)c34)c(F)c2n1)[C@@]12CCCN1[C@H](C)[C@H](F)C2 [Example 417, 5-Ethynyl-4-(8-fluoro-2-(((2R,3R,7aS)-2-fluoro-3-methyltetrahydro-1H-pyrrolizin-7a(5H)-yl)methoxy-d2)-4-((1S,7R,8S)-8-fluoro-2-azabicyclo[5.1.0]octan-2-yl)pyrido[4,3-d]pyrimidin-7-yl)-6-methylnaphthalen-2-amine] | < 0.05 |
| [2H]C1([2H])CC2(CC2)[C@@]2(C([2H])([2H])Oc3nc(N4CCOC[C@H]5[C@H](F)[C@H]54)c4cnc(-c5cc(N)cc6ccc(F)c(C#C)c56)c(F)c4n3)C[C@@]([2H])(F)CN12 (single isomer, unassigned) [Example 202] | < 0.05 |
| [2H]C([2H])(Oc1nc(N2CCOC[C@H]3[C@H](F)[C@H]32)c2cnc(-c3cccc4ccc(Cl)c(C#C)c34)c(F)c2n1)[C@@]12CCCN1C[C@H](F)C2 [Example 318, (1S,7S,8S)-2-(7-(7-chloro-8-ethynylnaphthalen-1-yl)-8-fluoro-2-(((2R,7aS)-2-fluorotetrahydro-1H-pyrrolizin-7a(5H)-yl)methoxy-d2)pyrido[4,3-d]pyrimidin-4-yl)-8-fluoro-5-oxa-2-azabicyclo[5.1.0]octane] | < 0.05 |

Other lines, results leading:

| IC50 [µM] | SMILES |
| --- | --- |
| < 0.05 | [2H]C([2H])(Oc1nc(N2CCOC[C@H]3[C@H](F)[C@H]32)c2cnc(-c3cncc4ccc(F)c(C#C)c34)c(F)c2n1)[C@@]12CCCN1C[C@H](F)C2 [Example 114, (1S,7S,8S)-2-(7-(5-Ethynyl-6-fluoroisoquinolin-4-yl)-8-fluoro-2-(((2R,7aS)-2-fluorotetrahydro-1H-pyrrolizin-7a(5H)-yl)methoxy-d2)pyrido[4,3-d]pyrimidin-4-yl)-8-fluoro-5-oxa-2-azabicyclo[5.1.0]octane] |
| < 0.05 | C#Cc1c(F)ccc2cccc(-c3ncc4c(N5CCCC[C@H]6[C@H](F)[C@H]65)nc(OC[C@]56C/C(=C\F)CN5CCC65CC5)nc4c3F)c12 [Example 377, (R,E)-7a′-(((7-(8-ethynyl-7-fluoronaphthalen-1-yl)-8-fluoro-4-((1S,7R,8S)-8-fluoro-2-azabicyclo[5.1.0]octan-2-yl)pyrido[4,3-d]pyrimidin-2-yl)oxy)methyl)-6′-(fluoromethylene)hexahydrospiro[cyclopropane-1,1′-pyrrolizine]] |
| < 0.05 | [2H]C([2H])(F)Oc1c(F)ccc2cccc(-c3ncc4c(N5CCOC[C@H]6[C@H](F)[C@H]65)nc(OC[C@]56C/C(=C\F)CN5CCC65CC5)nc4c3F)c12 [Example 385, (1S,7S,8S)-8-fluoro-2-(8-fluoro-7-(7-fluoro-8-(fluoromethoxy-d2)naphthalen-1-yl)-2-(((R,E)-6′-(fluoromethylene)tetrahydrospiro[cyclopropane-1,1′-pyrrolizin]-7a′(5′H)-yl)methoxy)pyrido[4,3-d]pyrimidin-4-yl)-5-oxa-2-azabicyclo[5.1.0]octane] |
| < 0.05 | [2H]C([2H])(F)Oc1c(F)ccc2cccc(-c3ncc4c(N5CCOC[C@H]6[C@H](F)[C@H]65)nc(OC[C@@]56CCCN5CC(=C)C6)nc4c3F)c12 [Example 145, (1S,7S,8S)-8-fluoro-2-(8-fluoro-7-(7-fluoro-8-(fluoromethoxy-d2)naphthalen-1-yl)-2-(((S)-2-methylenetetrahydro-1H-pyrrolizin-7a(5H)-yl)methoxy)pyrido[4,3-d]pyrimidin-4-yl)-5-oxa-2-azabicyclo[5.1.0]octane] |
| 0.5 to 10 | C#Cc1c(F)ccc2cccc(-c3ncc4c(N5CCOC[C@@H]6[C@@H](F)[C@@H]65)nc(OC[C@@]56CCCN5CC(=C(F)F)C6)nc4c3F)c12 [Example 103, (1R,7R,8R)-2-(2-(((S)-2-(difluoromethylene)tetrahydro-1H-pyrrolizin-7a(5H)-yl)methoxy)-7-(8-ethynyl-7-fluoronaphthalen-1-yl)-8-fluoropyrido[4,3-d]pyrimidin-4-yl)-8-fluoro-5-oxa-2-azabicyclo[5.1.0]octane] |

Same assay, conditions: Homo sapiens, NCI-H441, pERK HTRF, NCI-H441 cells (KRAS G12V)

| SMILES | IC50 [µM] |
| --- | --- |
| [2H]C([2H])([2H])Oc1c(F)c(F)cc2cc(N)cc(-c3ncc4c(N5CCOC[C@H]6[C@H](F)[C@H]65)nc(OC([2H])([2H])[C@@]56CCCN5C[C@H](F)C6)nc4c3F)c12 [Example 44, 6,7-Difluoro-4-(8-fluoro-4-((1S,7S,8S)-8-fluoro-5-oxa-2-azabicyclo[5.1.0]octan-2-yl)-2-(((2R,7aS)-2-fluorotetrahydro-1H-pyrrolizin-7a(5H)-yl)methoxy-d2)pyrido[4,3-d]pyrimidin-7-yl)-5-(methoxy-d3)naphthalen-2-amine] | < 0.05 |
| [2H]C([2H])(Oc1nc(N2CCOC[C@@H]3C[C@@H]32)c2cnc(-c3ccc(F)c4sc(N)c(C#N)c34)c(F)c2n1)[C@@]12CCCN1C[C@H](F)C2 [Example 47, 4-(4-((1S,7R)-5-Oxa-2-azabicyclo[5.1.0]octan-2-yl)-8-fluoro-2-(((2R,7aS)-2-fluorotetrahydro-1H-pyrrolizin-7a(5H)-yl)methoxy-d2)pyrido[4,3-d]pyrimidin-7-yl)-2-amino-7-fluorobenzo[b]thiophene-3-carbonitrile] | 0.5 to 10 |
| C#Cc1c(F)ccc2cc(O)cc(-c3ncc4c(N5CCCCC6C5C6(F)F)nc(OC[C@@]56CCCN5C[C@H](F)C6)nc4c3F)c12 (stereo partly drawn) [Example 6, 4-(4-(8,8-Difluoro-2-azabicyclo[5.1.0]octan-2-yl)-8-fluoro-2-(((2R,7aS)-2-fluorotetrahydro-1H-pyrrolizin-7a(5H)-yl)methoxy)pyrido[4,3-d]pyrimidin-7-yl)-5-ethynyl-6-fluoronaphthalen-2-ol] | < 0.05 |
| [2H]C([2H])(F)Oc1c(F)c(F)cc2cc(N)cc(-c3ncc4c(N5CCOC[C@H]6[C@H](F)[C@H]65)nc(OC([2H])([2H])[C@@]56CCCN5C[C@H](F)C6)nc4c3F)c12 [Example 88, 6,7-Difluoro-4-(8-fluoro-4-((1S,7S,8S)-8-fluoro-5-oxa-2-azabicyclo[5.1.0]octan-2-yl)-2-(((2R,7aS)-2-fluorotetrahydro-1H-pyrrolizin-7a(5H)-yl)methoxy-d2)pyrido[4,3-d]pyrimidin-7-yl)-5-(fluoromethoxy-d2)naphthalen-2-amine] | < 0.05 |

Same assay, conditions: cellular pERK (Thr202/Tyr204) HTRF, NCI-H441 cells

| SMILES | IC50 [µM] |
| --- | --- |
| [2H]C([2H])(Oc1nc(N2CCOC[C@H]3[C@H](Cl)[C@H]32)c2cc(C(F)(F)F)c(-c3ccc(F)c4sc(N)c(C#N)c34)c(F)c2n1)[C@@]12CCCN1C[C@H](F)C2 (atropisomer, axis not shown; (aS)) [Example 418, 2-amino-4-((R)-4-((1S,7S,8S)-8-chloro-5-oxa-2-azabicyclo[5.1.0]octan-2-yl)-8-fluoro-2-(((2R,7aS)-2-fluorotetrahydro-1H-pyrrolizin-7a(5H)-yl)methoxy-d2)-6-(trifluoromethyl)quinazolin-7-yl)-7-fluorobenzo[b]thiophene-3-carbonitrile] | 0.5 to 10 |

Same assay, conditions: cellular pERK HTRF, NCI-H441 (KRAS G12V) cells

| SMILES | IC50 [µM] |
| --- | --- |
| [2H]C([2H])(Oc1nc(N2CCOC[C@H]3[C@H](F)[C@H]32)c2cc(F)c(-c3cc(O)cc4ccc(F)c(C#C)c34)c(F)c2n1)[C@@]12CCCN1C[C@H](F)C2 (atropisomer, axis not shown; (aS)) [Example 454, 4-((S)-6,8-difluoro-4-((1S,7S,8S)-8-fluoro-5-oxa-2-azabicyclo[5.1.0]octan-2-yl)-2-(((2R,7aS)-2-fluorotetrahydro-1H-pyrrolizin-7a(5H)-yl)methoxy-d2)quinazolin-7-yl)-5-ethynyl-6-fluoronaphthalen-2-ol] | 0.5 to 10 |
